Test results from patent publication US20220218664A1, “DRUG AND METHOD FOR TREATING OR PREVENTING COMPLICATIONS FROM DIABETES, USING SAID DRUG” (TMS Co., Ltd., priority 2019, published 2022).

Tests used:
[1] = system: streptozotocin-induced diabetic mice; experiment: Blood glucose level (BS) in streptozotocin-induced diabetic mice; assay type: in vivo, C57BL/6J male mice; settings: 30 mg/kg i.p. once a day
Protocol: 9-week-old C57BL/6J male mice were purchased and familiarized with an animal facility for 1 week. 200 mg/kg of streptozotocin (streptozotocin; STZ) was administered […] into the peritoneal cavity of 10-week-old mice to prepare streptozotocin-induced diabetic mice (hereinafter also referred to as “STZ administration week 0”). One week after the administration of streptozotocin, blood was collected from the tail vein of the mice, and the blood glucose level (BS) was measured using an automatic blood glucose measuring device (product name: Medisafe (trademark) Mini GR-102, made by Terumo (Co)). Mice having a blood glucose level of 400 mg/dL or more were determined to be diabetic mice.
The SMTP-44D groups, the edaravone group, and the pregabalin group were administered SMTP-44D (0.3 mg/kg, 3 mg/kg, or 30 mg/kg doses, respectively), edaravone (10 mg/kg dose), or pregabalin (10 mg/kg dose) into the peritoneal cavity once a day for 3 consecutive weeks from the day following the first week to the fourth week after STZ administration.
For the above-mentioned STZ group, SMTP-44D groups, edaravone group, pregabalin group, and control group mice, the following measurements were conducted every week from the 0th week, which began on the day when streptozotocin (STZ) was administered, to the 4th week (that is, a total of five times). As algesia tests, the following von Frey test and hot plate test were conducted, and hind plantar blood flow, body weight (BW), and blood glucose level (BS) were measured using the above-mentioned automatic blood glucose measure device. Note, for example, the 0th week represents the 0th day. That is, the measurements were conducted on the 0th, 7th, 14th, 21st, and 28th days.

[2] = system: diabetic nephropathy model mice; experiment: Blood glucose level in diabetic nephropathy model mice; assay type: in vivo, Male db/db mice; settings: 30 mg/kg i.p. once every two days for 10 weeks; 16 weeks old
[3] = system: diabetic nephropathy model mice; experiment: Urinary albumin; settings: 30 mg/kg i.p. once every two days for 10 weeks; 16 weeks old
[4] = system: diabetic nephropathy model mice; experiment: Serum creatinine; settings: 16 weeks old
[5] = system: diabetic nephropathy model mice; experiment: Tubular regeneration score (HE-stained kidney); assay type: in vivo, Male db/db mice; settings: 16 weeks old, score 0 to 4
[6] = system: diabetic nephropathy model mice; experiment: Urine volume (24 h, metabolic cage); assay type: in vivo, Male db/db mice; settings: 16 weeks old, 24 h urine
[7] = Body weight in diabetic nephropathy model mice; assay type: in vivo, Male db/db mice; settings: 30 mg/kg i.p. once every two days for 10 weeks; 16 weeks old
[8] = 30 mg/kg i.p. once every two days for 10 weeks
[9] = 300 mg/kg orally once every two days for 10 weeks

CC(C)=CCC/C(C)=C/CCC1(C)Oc2c(c(O)cc3c2CN([C@H](Cc2ccccc2)C(=O)O)C3=O)CC1O (some centres unmarked) [SMTP-4D]
BS (blood glucose level) ([1]; 0th week (before dosing)): 203.5 ± 5.5 mg/dL | BS (blood glucose level) ([1]; 1st week (before dosing)): 535.5 ± 28.7 mg/dL | BS (blood glucose level) ([1]; 2nd week): 597.3 ± 44.8 mg/dL | BS (blood glucose level) ([1]; 3rd week): 638.7 ± 34.2 mg/dL | BS (blood glucose level) ([1]; 4th week): 580.3 ± 42.9 mg/dL

CC(C)=CCC/C(C)=C/CCC1(C)Oc2c(c(O)cc3c2CN(c2cc(C(=O)O)ccc2O)C3=O)CC1O (centres unmarked) [SMTP-27]
Blood glucose levels compared to the DN group [2]: No significant changes | Urinary albumin [3]: 0.3 ± 0.1 mg/h/kg | Serum creatinine [4, 8]: 0.4 ± 0.1 mg/dL | Tubular regeneration score [5, 8]: 0.0±0.0 pts | Urine volume [6, 8]: 1659.2 ± 270.2 µL | Body weight compared to the DN group [7]: No significant changes

CN(C)C(=N)N=C(N)N [metformin]
Serum creatinine [4, 9]: 0.6 ± 0.0 mg/dL | Tubular regeneration score [5, 9]: 0.5±0.2 pts | Urine volume [6, 9]: 1678.3 ± 250.4 µL
